Source: PMC7695835, “Pharmacological characterisation of novel adenosine A3 receptor antagonists” (Scientific Reports, 2020)
Changes are numbered by the printed parent chain. Read-outs that look alike come from different tables or passages of the source. Values belong to the compound of their own block, whether it stands above or below them.

What was measured:
physchem = settings: PBS, pH 7.4
A2AR [1] = target: T1, A2AR (Homo sapiens, UniProt P29274); set-up: method as in Lagarias et al.[19]; settings: 10 nM [3H]NECA; ref Lagarias et al.[19]; read-out: Radioligand binding Ki A2AR; cited from earlier work
T1 construct: expressed in transfected cells; host or cells: CHO cells, membrane preparation

A1R [2] = target: T2, A1R (Homo sapiens, UniProt P30542); set-up: method as in Lagarias et al.[19]; settings: 1 nM [3H]CCPA; ref Lagarias et al.[19]; read-out: Radioligand binding Ki A1R; cited from earlier work
T2 construct: expressed in transfected cells
T2 sequence (P30542 1-326): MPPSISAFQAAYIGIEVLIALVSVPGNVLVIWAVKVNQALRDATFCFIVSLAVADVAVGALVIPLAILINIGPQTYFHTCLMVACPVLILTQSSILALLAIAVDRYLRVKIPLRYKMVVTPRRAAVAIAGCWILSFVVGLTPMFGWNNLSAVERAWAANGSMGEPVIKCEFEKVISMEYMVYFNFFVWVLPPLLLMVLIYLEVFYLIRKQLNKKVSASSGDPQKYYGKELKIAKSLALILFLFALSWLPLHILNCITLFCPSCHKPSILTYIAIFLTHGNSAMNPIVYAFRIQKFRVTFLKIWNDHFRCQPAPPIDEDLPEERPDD

[3] = Half-life in PBS (pH 7.4); settings: PBS pH 7.4, 1 μM compound
Human plasma stability = settings: 1 μM compound
in vitro = settings: human, plasma
A2AR [4] = target: T1, A2AR; experiment: Radioligand binding at A2AR ([3H]NECA, CHO cell membranes); settings: 10 nM [3H]NECA; three independent experiments
Procedure: (§1) All pharmacological methods followed the procedures as described in the literature. In brief, membranes for radioligand binding were prepared from CHO cells stably transfected with hAR subtypes in a two-step procedure. In the first step, cell fragments and nuclei were removed at 1000×g and then the crude membrane fraction was sedimented from the supernatant at 100,000×g. The membrane pellet was resuspended in the buffer used for the respective binding experiments and it was frozen in liquid nitrogen and stored at – 80 °C. […] Ki values from competition experiments were calculated using Prism (GraphPad Software, La Jolla, CA, USA) assuming competitive interaction with a single binding site.

rat A3R = target: T3, rat A3R (Rattus norvegicus, UniProt P28647); experiment: NanoBRET ligand-binding, Nluc-rat A3R HEK 293 cells, AV039 tracer
T3 sequence (P28647 1-320): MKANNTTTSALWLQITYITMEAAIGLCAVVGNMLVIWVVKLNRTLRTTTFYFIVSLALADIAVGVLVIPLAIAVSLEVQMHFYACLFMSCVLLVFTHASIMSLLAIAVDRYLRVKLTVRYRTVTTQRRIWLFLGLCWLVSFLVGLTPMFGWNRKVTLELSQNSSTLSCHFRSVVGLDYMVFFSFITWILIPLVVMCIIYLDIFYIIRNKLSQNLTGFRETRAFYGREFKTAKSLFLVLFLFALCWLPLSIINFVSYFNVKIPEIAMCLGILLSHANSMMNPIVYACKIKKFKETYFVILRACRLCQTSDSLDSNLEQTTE

A1R [5] = target: T2, A1R; experiment: Radioligand binding at A1R ([3H]CCPA, CHO cell membranes); settings: 1 nM [3H]CCPA; three independent experiments
Procedure: as §1

A3R [6] = target: T4, A3R (Homo sapiens, UniProt P0DMS8); experiment: Radioligand binding at A3R ([3H]HEMADO, CHO cell membranes); settings: 1 nM [3H]HEMADO; three independent experiments
T4 sequence (P0DMS8 1-318): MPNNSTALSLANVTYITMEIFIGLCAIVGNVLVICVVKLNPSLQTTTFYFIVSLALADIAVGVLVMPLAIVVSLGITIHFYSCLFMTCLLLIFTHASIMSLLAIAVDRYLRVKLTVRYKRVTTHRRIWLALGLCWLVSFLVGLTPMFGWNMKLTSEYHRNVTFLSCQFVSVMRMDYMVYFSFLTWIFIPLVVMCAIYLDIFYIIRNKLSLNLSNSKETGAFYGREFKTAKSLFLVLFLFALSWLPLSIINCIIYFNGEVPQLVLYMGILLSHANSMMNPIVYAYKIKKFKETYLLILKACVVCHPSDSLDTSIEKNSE

A3R [7] = target: T4, A3R; settings: for cAMP accumulation Mean difference between 'NECA' and compound: 10 μM forskolin + NECA IC80 + 1 μM compound
A3R [8] = target: T4, A3R; experiment: HEMADO induced cAMP inhibition at the A3R; type: cell-based; settings: HEMADO only
I249A A3R = target: T5, I249A A3R (Homo sapiens, UniProt P0DMS8, I249A); settings: + DMSO
T5 sequence (P0DMS8 1-318 I249A): T4 sequence (P0DMS8 1-318) with I249A

L90A A3R = target: T6, L90A A3R (Homo sapiens, UniProt P0DMS8, L90A); settings: + DMSO
T6 sequence (P0DMS8 1-318 L90A): T4 sequence (P0DMS8 1-318) with L90A

M177A A3R = target: T7, M177A A3R (Homo sapiens, UniProt P0DMS8, M177A); settings: + DMSO
T7 sequence (P0DMS8 1-318 M177A): T4 sequence (P0DMS8 1-318) with M177A

WT A3R [9] = target: T8, WT A3R (Homo sapiens, UniProt P0DMS8); experiment: IB-MECA stimulated cAMP inhibition at WT A3R Flp-In-CHO, with Schild analysis; type: cell-based; settings: IB-MECA only; difference between Emin and basal
T8 sequence (P0DMS8 1-318): T4 sequence (P0DMS8 1-318)

L264A A3R = target: T9, L264A A3R (Homo sapiens, UniProt P0DMS8, L264A); settings: + DMSO
T9 sequence (P0DMS8 1-318 L264A): T4 sequence (P0DMS8 1-318) with L264A

V169A A3R = target: T10, V169A A3R (Homo sapiens, UniProt P0DMS8, V169A); settings: + DMSO
T10 sequence (P0DMS8 1-318 V169A): T4 sequence (P0DMS8 1-318) with V169A

WT A3R [10] = target: T8, WT A3R; settings: + DMSO
A3R [11] = target: T4, A3R; experiment: NECA stimulated cAMP inhibition in A3R Flp-In CHO cells; type: cell-based; settings: NECA only; lower plateau
A1R [12] = target: T2, A1R; experiment: NECA stimulated cAMP inhibition in CHO-K1 cells expressing A1R; type: cell-based; settings: NECA only
[13] = 10 μM forskolin + NECA IC80 (3.16 nM) + 1 μM compound, mean ± SEM, n = 3

T1 sequence (P29274 whole entry): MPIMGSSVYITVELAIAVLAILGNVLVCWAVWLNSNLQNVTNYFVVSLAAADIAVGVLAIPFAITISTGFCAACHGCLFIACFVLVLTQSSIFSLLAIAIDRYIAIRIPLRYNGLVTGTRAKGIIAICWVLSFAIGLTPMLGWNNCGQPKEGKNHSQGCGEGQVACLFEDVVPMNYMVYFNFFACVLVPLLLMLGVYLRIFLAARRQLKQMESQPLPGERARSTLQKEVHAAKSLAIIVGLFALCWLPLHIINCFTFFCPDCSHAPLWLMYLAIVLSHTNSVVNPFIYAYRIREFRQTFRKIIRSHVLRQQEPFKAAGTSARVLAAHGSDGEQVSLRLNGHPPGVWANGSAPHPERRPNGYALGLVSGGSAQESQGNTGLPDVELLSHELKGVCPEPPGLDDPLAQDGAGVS

- half-life at 1 μM (physchem): > 4 h
- percentage remaining at 240 min [3]: 87%
- percentage remaining after 120 min (Human plasma stability): 90%
- half-life at 1 μM (in vitro): > 2 h
Compound: Cc1nc(C(=N)NOC(=O)c2c(-c3c(Cl)cccc3Cl)noc2C)cs1 [Compound K18, O4-{[3-(2,6-dichlorophenyl)-5-methylisoxazol-4-yl]carbonyl}-2-methyl-1,3-thiazole-4-carbohydroximamide]
- Ki (A2AR [1]): > 100 µM
- Ki (A1R [2]): > 100 µM

- Ki (A2AR [4]): > 100 µM
- binding at rat A3R (rat A3R; no binding detected below the concentration of 10 μM): very weak binding
- pKi (rat A3R; rat A3R, 100 nM AV039, BRET ratio at 5 minutes, Cheng-Prusoff): 4.05 ± 0.10
- Ki (A1R [5]): > 100 µM
Compound: Cc1onc(-c2ccccc2Cl)c1C(=O)O/N=C(\N)c1ccccn1 [Compound K32]

- Ki (A2AR [4]): > 100 µM
- Ki (A3R [6]): > 30 µM
- cAMP accumulation Mean (A3R [7]; [13]): 71.97 ±4.74 %10 μM forskolin response
- cAMP accumulation Mean difference between 'NECA' and compound (A3R [7]): -11.65 %10 μM forskolin response
- Ki (A1R [5]): > 100 µM
Compound: N/C(=N\OC(=O)c1ccccc1-c1ccccc1)c1cccnc1 [Compound K33]

- Ki (A2AR [4]): > 100 µM
- Ki (A3R [6]): > 100 µM
- cAMP accumulation Mean (A3R [7]; [13]): 61.96 ±1.51 %10 μM forskolin response
- cAMP accumulation Mean difference between 'NECA' and compound (A3R [7]): -1.64 %10 μM forskolin response
- Ki (A1R [5]): > 100 µM
Compound: N/C(=N\OC(=O)c1ccc(-c2ccccc2)cc1)c1ccc(Br)cc1 [Compound K36]

- Span (A3R [8]): 107.3 ±4.7
- IC50 (A3R [8]; 10 µM forskolin, n = 3, read-out: pIC50 of HEMADO (converted)): 28.8 pM
- Emin (A3R [8]; lower plateau): -3.48 ±2.7 % 10 µM forskolin response
- Basal (A3R [8]; upper plateau): 103.8 ±4.1
Compound: CCCCC#Cc1nc(NC)c2ncn([C@@H]3O[C@H](CO)[C@@H](O)[C@H]3O)c2n1 [HEMADO, (2R,3R,4S,5R)-2-(2-hex-1-ynyl-6-methylaminopurin-9-yl)-5-(hydroxymethyl)oxolane-3,4-diol]

- Basal (I249A A3R): 62.6 ± 2.7 %100 μM forskolin
- Emin (I249A A3R): 34.9 ± 2.2 %100 μM forskolin
- Span (I249A A3R): 27.7 ± 1.3
- Basal (L90A A3R): 73.2 ± 2.7 %100 μM forskolin
- Emin (L90A A3R): 43.3 ± 3.2 %100 μM forskolin
- Span (L90A A3R): 29.9 ± 1.8
- Basal (M177A A3R): 70.2 ± 2.0 %100 μM forskolin
- Emin (M177A A3R): 38.6 ± 2.7 %100 μM forskolin
- Span (M177A A3R): 31.6 ± 2.0
- Span (WT A3R [9]): 116.1 ± 3.5
- Basal (L264A A3R): 72.0 ± 2.3 %100 μM forskolin
- Emin (L264A A3R): 41.1 ± 2.2 %100 μM forskolin
- Span (L264A A3R): 30.9 ± 2.2
- Basal (V169A A3R): 55.3 ± 2.4 %100 μM forskolin
- Emin (V169A A3R): 30.9 ± 1.7 %100 μM forskolin
- Basal (WT A3R [10]): 60.1 ± 0.9 %100 μM forskolin
- Emin (WT A3R [10]): 35.0 ± 1.6 %100 μM forskolin
- Span (WT A3R [10]): 25.1 ± 2.0
Compound: CNC(=O)[C@H]1O[C@@H](n2cnc3c(NCc4cccc(I)c4)ncnc32)[C@H](O)[C@@H]1O [IB-MECA, (2S,3S,4R,5R)-3,4-dihydroxy-5-[6-[(3-iodophenyl)methylamino]purin-9-yl]-N-methyloxolane-2-carboxamide]

Compound: CCNC(=O)[C@H]1O[C@@H](n2cnc3c(N)ncnc32)[C@H](O)[C@@H]1O [NECA]
- Emin (A3R [11]): -5.02 ±2.4 % 10 µM forskolin response, relative to NECA
- cAMP accumulation Mean (A3R [7]; 10 μM forskolin + NECA IC80 (3.16 nM), no test compound): 60.32 ± 3.41 %10 μM forskolin response
- Span (A1R [12]): 111.4 ±4.0
- Emin (A1R [12]; lower plateau): -5.1 ±1.0 % forskolin response
- Basal (A1R [12]; upper plateau): 107.5 ±3.4

- half-life at 1 μM (physchem): > 4 h
- half-life at 1 μM (in vitro): 0.917 h
Compound: CC(C)[N+](C)(CCOC(=O)C1c2ccccc2Oc2ccccc21)C(C)C [propantheline, reference compound]
